# Columns and labels:
# PBMC from normal donors = assay type: cell-based, human
# [1] = tested on: patients with recurrent or residual cervical carcinoma; conditions: cited from earlier work
Substance,"antigen concentration at which the 10,000 cpm proliferation level was reached (PBMC from normal donors)",responding patients ([1]; 95% interval 10-65%) [%],safety ([1]; co-emulsified with HPV-derived CTL epitopes)
QYIKANSKFIGITE [Epitope 553.01],"about 10,000 ng/ml",,
aKXVAAWTLKAAa-NH2,,33,favorable safety profile

# Source: US6602510B1, “HLA class I A2 tumor associated antigen peptides and vaccine compositions” (priority 2000, dated 2003)
